Experiment [1] concerns Male Wistar rats. Briefly: Test Example 2A: excretion action of urine sugar in rat. Type of experiment: in vivo. The note with it: urine collected 24 hours. The procedure: Male Wistar rats aged 5 weeks (purchased from Charles River Japan, Inc.) were acclimatized in metabolic cages for one week, for use at this experiment. The test compounds suspended in olive oil were dosed at 5 ml per 1 kg rat body weight.
After the rats were starved for 4 hours, the test compounds were orally given to the rats at 11 am. Immediately after dosing until 24 hours later, urine was collected. The volume of urine was measured. Then, urine sugar concentration was assayed by glucose oxidase method, to calculate the glucose excretion into urine per individual per day.

Experiment [2] has as its system Male Wistar rats. Briefly: Test Example 1B: excretion action of urine sugar in rat. Type of experiment: in vivo. The note with it: oral administration, 24 hours. The procedure: Male Wistar rats aged 5 weeks (purchased from Charles River Japan, Inc.) were acclimatized in metabolic cages for one week, for use at this experiment. The test compounds suspended in olive oil were prepared into solutions to a dose of 5 ml per 1 kg rat body weight. After the rats were starved for 4 hours, the test compounds were orally given at 10, 30 and 100 mg/kg to the rats at 11 am. Immediately after dosing until 24 hours later, urine was collected. The volume of urine was measured. Then, urine glucose concentration was assayed by glucose oxidase method, to calculate the glucose excretion into urine per individual per day. As a positive control, 3-(5-benzo[b]furanyl)-2′-(6-o-methoxycarbonyl-β-D-glucopyranosyloxy)-6′-hydroxy-4′-methylpropiophenone [under a different name of 3-(benzo[b]furan-5-yl)-2′,6′-dihydroxy-4′-methylpropiophenone 2′-o-(6-o-methoxycarbonyl-β-D-glucopyranoside)] was used.

Experiment [3] deals with glucose-loaded mice (KK mice). Briefly: Example II: blood glucose time course after oral glucose loading in KK mice. Type of experiment: in vivo, mouse. Conditions: glucose 1 g/kg p.o., FIG. 3. The procedure: KK mice (age of 25 weeks; male) fed with a commercially available high-calories feed for breeding (CMF; Oriental Yeast) were divided into groups with matched body weights. After starvation for 17 hours, glucose was orally given at 1 g/kg. Immediately thereafter, the inhibitor A of renal glucose reabsorption (30 mg/kg or 45 mg/kg) or metformin (200 mg/kg or 300 mg/kg) was orally given. Additionally, a group given with the inhibitor A of renal glucose reabsorption (30 mg/kg) and metformin (200 mg/kg) was prepared. A vehicle was orally given to a control group after glucose dosing.
Blood glucose level was assayed in a time course.

Experiment [4] relates to Type 2 diabetes model Zucker diabetic fatty rats. Briefly: Example V: insulin content in pancreas of Zucker diabetic fatty rats (ELISA). Type of experiment: in vivo, rat. Conditions: twice daily p.o., day 39, starved 18 h, inhibitor A 30 mg/kg and/or metformin 200 mg/kg, FIG. 5. The protocol:
Type 2 diabetes model Zucker diabetic fatty rats (age 15 weeks) were divided into groups with matched blood glucose levels and body weights. Subsequently, the inhibitor A of renal glucose reabsorption at 30 mg/kg or metformin at 200 mg/kg was orally given twice daily. Further, a group to be on a combined use of the inhibitor A of renal glucose reabsorption (30 mg/kg) and metformin (200 mg/kg) was prepared. The agents were orally given twice daily at the same time period as in the case of the groups administered with a single one of these agents. Only a vehicle was orally given twice daily to the animals in a control group. On day 39 from the start of administration, the animals were starved for 18 hours. Then, pancreas was resected from the animals, for the assay of insulin in pancreas homogenates by ELISA, to compare the groups in terms of insulin content in pancreas.
Zucker diabetic fatty rat is a type 2 diabetic model animal, where the sustainment of hyperglycemic conditions induces a high concentration of glycated hemoglobin so that the aging of the model animal involves the decrease of the insulin content in pancreas.
For orientation: ELISA stands for enzyme-linked immunosorbent assay.

For experiment [5], the system named is glucose-loaded rats (Wistar rats). Briefly: Example I: blood glucose time course after oral glucose loading in rats. Type of experiment: in vivo, rat. Conditions: glucose 1 g/kg p.o. The protocol:
Wistar rats (age of 7 weeks; male) were divided into groups with matched body weights. After 17-hour starvation, glucose was orally given at 1 g/kg to the animals. Immediately after the administration, the inhibitor A of renal glucose reabsorption or the inhibitor B of renal glucose reabsorption (A at 30 mg/kg or 60 mg/kg; B at 30 mg/kg or 80 mg/kg) or glibenclamide (1 mg/kg or 2 mg/kg) or nateglinide (50 mg/kg or 80 mg/kg) was orally given. Additionally, a group on the combined use of both of an inhibitor of renal glucose reabsorption and a hypoglycemic agent was also prepared. A vehicle was orally given to a control group after glucose administration.
Blood glucose was measured in a time course.

The subject of experiment [6] is Type 2 diabetic model GK rats. Briefly: Example III: blood glucose on day 25 of once daily dosing in GK rats. Conditions: once daily p.o., FIG. 4. Type of experiment: in vivo, rat. The protocol:
Type 2 diabetic model GK rats (age of 7 weeks; male) were divided into groups with matched blood glucose levels and body weights, for once daily oral administration of the inhibitor A of renal glucose reabsorption (30 mg/kg) or glibenclamide at 3 or 6 mg/kg. Further, a group given with a combination of the inhibitor A of renal glucose reabsorption at 30 mg/kg and glibenclamide at 3 mg/kg was prepared. These agents were orally given once daily at the same time period as in the group administered with a single one agent. Only a vehicle was given orally to a control group. On day 25 after the start of administration, blood glucose was assayed sequentially, to compare the groups in terms of the resulting blood glucose levels.

The mark [7] stands for this setting: metformin 200 mg/kg, inhibitor A 30 mg/kg p.o., vs control.
Where [8] appears, read: nateglinide 50 mg/kg and/or inhibitor B 30 mg/kg p.o., vs vehicle, FIG. 2.
[9] abbreviates: glibenclamide 1 mg/kg and/or inhibitor A 30 mg/kg p.o., vs vehicle, FIG. 1.

On to `COC(=O)OC[C@H]1O[C@@H](Oc2nn(C(C)C)c(C)c2Cc2ccc(OC)c(F)c2)[C@H](O)[C@@H](O)[C@@H]1O` [Production Example 10-A, 4′-[(3′-fluoro-4′-methoxyphenyl)methyl]-1′-isopropyl-5′-methyl-1H-pyrazole-3′-o-(6-carbomethoxy)-β-D-glucopyranoside], for which the Excreted urine sugar with Male Wistar rats [1] (Dose 100 mg/kg p.o.) is recorded as 734 mg.
On the same count and under the same terms, then `CCc1ccc(Cc2c(O[C@@H]3O[C@H](COC(=O)OC)[C@@H](O)[C@H](O)[C@H]3O)nn(-c3ccccc3)c2C(F)(F)F)cc1` [Production Example 8-A, 4′-[(4′-ethylphenyl)methyl]-1′-phenyl-5′-trifluoromethyl-1H-pyrazole-3′-o-(6-carbomethoxy)-β-D-glucopyranoside], with 4.1 mg.
With `CCc1ccc(Cc2c(O[C@@H]3O[C@H](COC(=O)OC)[C@@H](O)[C@H](O)[C@H]3O)nn(C(C)C)c2C)cc1` [Production Example 16-A, 4′-[(4-ethylphenyl)methyl]-1′-isopropyl-5′-methyl-1H-pyrazole-3′-o-(6-carbomethoxy)-β-D-glucopyranoside], the Excreted urine sugar in the experiment on Male Wistar rats [1] (Dose 3 mg/kg p.o.) is recorded as 28 mg; with Male Wistar rats [1] (Dose 10 mg/kg p.o.), 263 mg; in the experiment with Male Wistar rats [1] (Dose 30 mg/kg p.o.), 294 mg; in the experiment on Male Wistar rats [1] (Dose 100 mg/kg p.o.), 598 mg.
Consider `CCc1ccc(Cc2c(OC3OC(COC(=O)OC)C(O)C(O)C3O)nn(C(CF)CF)c2C(F)(F)F)cc1` [Production Example 2B, 4′-[(4′-ethylphenyl)methyl]-1′-(1′,3′-difluoro-2′-propyl)-5′-(trifluoromethyl)-1H-pyrazole-3′-o-(6-o-methoxycarbonyl-β-D-glucopyranoside)], for which the Excreted urine sugar is reported as 136 mg in the experiment on Male Wistar rats [2] (Dose 10 mg/kg), 272 mg with Male Wistar rats [2] (Dose 30 mg/kg) and 524 mg in the experiment with Male Wistar rats [2] (Dose 100 mg/kg).
Regarding `CN(C)C(=N)N=C(N)N` [metformin, reference compound], in experiment [3] (setting [7]), the “Blood glucose 30 minutes after glucose loading” value is recorded as “did not suppress the increase of blood glucose in the mice 30 minutes after glucose loading”; the “Blood glucose 60 minutes after glucose loading” value is “suppressed the increase 60 minutes later and thereafter”; the “Blood glucose 2 hours after glucose loading and thereafter” value was “suppressed the increase 60 minutes later and thereafter”. The “Pattern of glycemic suppression at elevated dose” value in experiment [3] (metformin 300 mg/kg, inhibitor A 45 mg/kg) is listed as “The pattern of glycemic suppression did not change even when the dose was elevated”. Besides, the “Insulin content in pancreas” value in experiment [4] is reported as “no difference was observed in insulin content in spleen”.
On to `CC(C)[C@H]1CC[C@H](C(=O)N[C@H](Cc2ccccc2)C(=O)O)CC1` [nateglinide], for which, in experiment [5] (setting [8]), the “Blood glucose 30 minutes after glucose loading” value is “more highly suppressed hyperglycemia immediately after glucose loading (30 minutes and 60 minutes)”; the “Blood glucose 60 minutes after glucose loading” value was “more highly suppressed hyperglycemia immediately after glucose loading (30 minutes and 60 minutes)”. Besides, in experiment [5] (nateglinide 50 mg/kg p.o., vs vehicle, FIG. 2), the “Blood glucose 120 minutes after glucose loading and thereafter” value was “did not lower the blood glucose level 120 minutes after glucose loading and thereafter”. For the same compound, the “Pattern of glycemic suppression at increased dose” value in experiment [5] (nateglinide 80 mg/kg, inhibitor B 80 mg/kg, FIG. 2) is recorded as “the pattern of glycemic suppression did not change even by the elevation of the dose”.
In the experiment with Male Wistar rats [1] (Dose 100 mg/kg p.o.), `Cc1[nH]nc(O[C@@H]2O[C@H](CO)[C@@H](O)[C@H](O)[C@H]2O)c1Cc1ccc(OC(C)C)cc1` [Reference Production Example 1, 4-[(4-isopropoxyphenyl)methyl]-5-methyl-1H-pyrazole-3-o-β-D-glucopyranoside, reference compound] showed an Excreted urine sugar of 14 mg.
Turning to `CCc1ccc(Cc2c(O[C@@H]3O[C@H](COC(=O)OC)[C@@H](O)[C@H](O)[C@H]3O)nn(Cc3ccc(OC)cc3)c2C(F)(F)F)cc1` [Production Example 6-A, 4′-[(4′-ethylphenyl)methyl]-1′-[(4′-methoxyphenyl)methyl]-5′-trifluoromethyl-1H-pyrazole-3′-o-(6-carbomethoxy)-β-D-glucopyranoside], in the experiment on Male Wistar rats [1] (Dose 100 mg/kg p.o.), the Excreted urine sugar amounted to 59 mg.
The same measure, in the same setting: under `CCc1ccc(Cc2c(O[C@@H]3O[C@H](COC(=O)OC)[C@@H](O)[C@H](O)[C@H]3O)nn(Cc3ccccc3)c2C(F)(F)F)cc1` [Production Example 4-A, 4′-[(4′-ethylphenyl)methyl]-1′-benzyl-5′-trifluoromethyl-1H-pyrazole-3′-o-(6-carbomethoxy)-β-D-glucopyranoside] stands 27 mg; under `COC(=O)OC[C@H]1O[C@@H](Oc2nn(C(C)C)c(C)c2Cc2ccc(C)c(F)c2)[C@H](O)[C@@H](O)[C@@H]1O` [Production Example 14-A, 4′-[(3′-fluoro-4′-methylphenyl)methyl]-1′-isopropyl-5′-methyl-1H-pyrazole-3′-o-(6-carbomethoxy)-β-D-glucopyranoside], 918 mg.
For the compound `COc1ccc(Cl)cc1C(=O)NCCc1ccc(S(=O)(=O)NC(=O)NC2CCCCC2)cc1` [glibenclamide], in experiment [5] (setting [9]), the “Blood glucose 120 minutes after glucose loading and thereafter” value was “lowered blood glucose 120 minutes after glucose loading and thereafter”; the “Blood glucose immediately after glucose loading (30 minutes)” value is “did not suppress hyperglycemia immediately after glucose loading”. Also, in experiment [5] (glibenclamide 2 mg/kg, inhibitor A 60 mg/kg, FIG. 1), the “Pattern of glycemic suppression at increased dose” value is “did not change changed the pattern of glycemic suppression”. For the same compound, the “Blood glucose level on day 25” value in experiment [6] (glibenclamide 3 mg/kg and/or inhibitor A 30 mg/kg) was “no difference was observed from the vehicle-dosed group in terms of the blood glucose levels”. Further, in experiment [6] (glibenclamide 6 mg/kg), the “Blood glucose level on day 25” value was “did not produce any difference in blood glucose level from the vehicle-dosed group”.

Source of the values: patent US7956041B2, “Prophylactic and therapeutic agent of diabetes mellitus” (Ajinomoto Co., Inc., priority 2002, dated 2011).
